In US6140368A, “Naphthols useful in antiviral methods” (The Regents of the University of California, priority 1998, dated 2000):

Target: HIV reverse transcriptase (Human immunodeficiency virus type 1 group M subtype B, UniProt P03366)
Assay: Reverse transcriptase scintillation proximity assay (Example 4, Table 2)
Format: biochemical
Settings: 10 μM inhibitor; relative to dimethyl sulfoxide = 100%; 3 min
Description: Reverse transcriptase ("RT") activity is measured using a scintillation proximity assay kit available from Amersham Life Sciences, Inc., which uses a biotin/streptavidin bead capture system. RNA-dependent polymerase activity is measured using purified […] and a synthetic 17mer/50mer RNA-DNA template-primer containing biotin at the 5' end of the DNA. The template-primer, buffer, dNTP, and inhibitor are incubated for 10 minutes at 37° C. before the RT is added. The final 100 μl reaction mixture contains: 39 nm of template primer, buffer (40 mM tris HCl at pH 8.0, 10 mM MgCl2, 60 mM KCl, 10 mM dithiothreitol); 75 nM of each dNTP except dTTP; 25 nM dTTP and 35 nM tritium labeled d*TTP; 10 μM inhibitor; and 1.0-2.0 μg of RT. After three minute incubation, the reaction is quenched with 40 μl of 0.56M EDTA. Then 10 μl of streptavidin SPA beads (in suspension) are added and incubated at 37° C. for 10 minutes. Finally, 850 μl of a buffer containing 10 mM Tris HCl pH 7.4 and 0.15M NaCl is added. The signal is produced by biotinylated polymers incorporating d*TTP binding to the streptavidin beads which stimulate the scintillant. The amount of d*TTP incorporated in the polymer is measured with a scintillation counter.
Compounds showing good inhibition will give a low number of counts/min (cpm). This number is related to a standard, dimethyl sulfoxide, which is given an arbitrary 100% relative activity. All cpm data in a single run are given a percent of this standard.

Compound	% RT activity remaining at 10 μM [%]
O=C(Nc1ccc2c(O)c(N=Nc3ccc([As](=O)(O)O)cc3)c(S(=O)(=O)O)cc2c1)Nc1ccc2c(O)c(N=Nc3ccc([As](=O)(O)O)cc3)c(S(=O)(=O)O)cc2c1 [Compound 48]	17

Same assay, conditions: 10 μM inhibitor; relative to dimethyl sulfoxide = 100%; 3 min, 10 µM

Compound	% RT activity remaining at 10 μM
O=C(O)c1ccc(N=Nc2c(S(=O)(=O)O)cc3cc(NC(=O)c4ccc(C(=O)Nc5ccc6c(O)c(N=Nc7ccc(C(=O)O)cc7)c(S(=O)(=O)O)cc6c5)cc4)ccc3c2O)cc1 [Compound 169]	.15%

Same assay, conditions: 0.05 h, 10 μM inhibitor; relative to dimethyl sulfoxide = 100%; read-out: % RT activity remaining at 10 μM

Compound	remaining activity at 10 µM [%]
O=C(O)/C=C/c1ccc(N=Nc2c(S(=O)(=O)O)cc3ccc(Nc4c(Nc5ccc6cc(S(=O)(=O)O)c(N=Nc7ccc(/C=C/C(=O)O)cc7)c(O)c6c5)c(=O)c4=O)cc3c2O)cc1 [Compound 199]	1.2
O=C(Nc1ccc2c(S(=O)(=O)O)cccc2c1)Nc1ccc2c(S(=O)(=O)O)cccc2c1 [Compound 81]	78
Nc1cccc2c(NC(=O)Nc3ccc4c(O)cc(S(=O)(=O)O)cc4c3)cccc12 [Compound 19]	80
O=C(O)Cc1ccc(N=Nc2c(S(=O)(=O)O)cc3cc(NC(=O)c4cccc(C(=O)Nc5ccc6c(O)c(N=Nc7ccc(CC(=O)O)cc7)c(S(=O)(=O)O)cc6c5)n4)ccc3c2O)cc1 [Compound 119]	0.29
O=C(Nc1ccc2c(O)c(N=Nc3cc(F)c(F)c(C(=O)O)c3F)c(S(=O)(=O)O)cc2c1)c1cccc(C(=O)Nc2ccc3c(O)c(N=Nc4cc(F)c(F)c(C(=O)O)c4F)c(S(=O)(=O)O)cc3c2)n1 [Compound 126]	0.16
COc1cc(N=Nc2c(S(=O)(=O)O)cc3cc(NC(=O)c4ccc(C(=O)Nc5ccc6c(O)c(N=Nc7cc(OC)c(OC)cc7C(=O)O)c(S(=O)(=O)O)cc6c5)cc4)ccc3c2O)c(C(=O)O)cc1OC [Compound 179]	7.5
O=C(Nc1ccc(S(=O)(=O)O)c2ccccc12)Nc1ccc(S(=O)(=O)O)c2ccccc12 [Compound 79]	78
COC(=O)c1cc(NC(=O)Nc2ccc3c4c(cccc24)C(=O)OC3=O)cc(C(=O)OC)c1 [Compound 83]	77
CCOC(=O)c1ccc(NC(=O)Nc2ccc3c(O)cc(S(=O)(=O)O)cc3c2)cc1 [Compound 25]	86
COc1cc(C(=O)O)ccc1N=Nc1c(S(=O)(=O)O)cc2cc(NC(=O)c3cc(O)cc(C(=O)Nc4ccc5c(O)c(N=Nc6ccc(C(=O)O)cc6OC)c(S(=O)(=O)O)cc5c4)n3)ccc2c1O [Compound 153]	0.15
O=C(O)/C=C/c1ccc(N=Nc2c(S(=O)(=O)O)cc3cc(NC(=O)c4cc(=O)cc(C(=O)Nc5ccc6c(O)c(N=Nc7ccc(/C=C/C(=O)O)cc7)c(S(=O)(=O)O)cc6c5)o4)ccc3c2O)cc1 [Compound 137]	0.53
O=C(O)/C=C/c1ccc(N=Nc2c(S(=O)(=O)O)cc3cc(Nc4c(Nc5ccc6c(O)c(N=Nc7ccc(/C=C/C(=O)O)cc7)c(S(=O)(=O)O)cc6c5)c(=O)c4=O)ccc3c2O)cc1 [Compound 185]	0.6
O=C(O)Cc1ccc(N=Nc2c(S(=O)(=O)O)cc3cc(NC(=O)c4ccc(C(=O)Nc5ccc6c(O)c(N=Nc7ccc(CC(=O)O)cc7)c(S(=O)(=O)O)cc6c5)cc4)ccc3c2O)cc1 [Compound 163]	0.1
O=C(Nc1ccc2c(O)c(N=Nc3cc(F)c(F)c(C(=O)O)c3F)c(S(=O)(=O)O)cc2c1)c1ccc(C(=O)Nc2ccc3c(O)c(N=Nc4cc(F)c(F)c(C(=O)O)c4F)c(S(=O)(=O)O)cc3c2)cc1 [Compound 171]	0.15
COC(=O)C(Cc1c[nH]c2ccccc12)NC(=O)Nc1ccc2c(O)cc(S(=O)(=O)O)cc2c1 (stereo not drawn) [Compound 17]	82
O=C(O)CCc1ccc(N=Nc2c(S(=O)(=O)O)cc3cc(Nc4c(Nc5ccc6c(O)c(N=Nc7ccc(CCC(=O)O)cc7)c(S(=O)(=O)O)cc6c5)c(=O)c4=O)ccc3c2O)cc1 [Compound 188]	0.3
CC(=O)Nc1ccc(N=Nc2c(S(=O)(=O)O)cc3cc(NC(=O)c4ccc(C(=O)Nc5ccc6c(O)c(N=Nc7ccc(NC(C)=O)cc7)c(S(=O)(=O)O)cc6c5)cc4)ccc3c2O)cc1 [Compound 174]	28
O=C(O)CCCc1ccc(N=Nc2c(S(=O)(=O)O)cc3cc(NC(=O)c4ccc(C(=O)Nc5ccc6c(O)c(N=Nc7ccc(CCCC(=O)O)cc7)c(S(=O)(=O)O)cc6c5)cc4)ccc3c2O)cc1 [Compound 165]	3.7
O=C(O)c1ccc(N=Nc2c(S(=O)(=O)O)cc3cc(Nc4c(Nc5ccc6c(O)c(N=Nc7ccc(C(=O)O)cc7)c(S(=O)(=O)O)cc6c5)c(=O)c4=O)ccc3c2O)cc1 [Compound 186]	0.5

Compound	remaining activity at 10 µM [%]
Cc1cc2nc(N=Nc3c(S(=O)(=O)O)cc4cc(NC(=O)c5ccc(C(=O)Nc6ccc7c(O)c(N=Nc8nc9cc(C)c(C)cc9[nH]8)c(S(=O)(=O)O)cc7c6)cc5)ccc4c3O)[nH]c2cc1C [Compound 183]	36
O=C(Nc1ccc2c(O)cc(S(=O)(=O)O)cc2c1)c1cc(=O)cc(C(=O)Nc2ccc3c(O)cc(S(=O)(=O)O)cc3c2)o1 [Compound 131]	48
O=C(Nc1ccc2c(O)c(N=Nc3ccc(Cl)cc3)c(S(=O)(=O)O)cc2c1)c1ccc(C(=O)Nc2ccc3c(O)c(N=Nc4ccc(Cl)cc4)c(S(=O)(=O)O)cc3c2)cc1 [Compound 181]	43
O=C(O)Cc1ccc(N=Nc2c(S(=O)(=O)O)cc3cc(NC(=O)c4cc(O)cc(C(=O)Nc5ccc6c(O)c(N=Nc7ccc(CC(=O)O)cc7)c(S(=O)(=O)O)cc6c5)n4)ccc3c2O)cc1 [Compound 147]	0.3
O=C(Nc1ccc2c(O)cc(S(=O)(=O)O)cc2c1)Nc1cccc2ccc(S(=O)(=O)O)cc12 [Compound 10]	88
O=C(O)c1cc(N=Nc2c(S(=O)(=O)O)cc3cc(NC(=O)c4cc(=O)cc(C(=O)Nc5ccc6c(O)c(N=Nc7cc(C(=O)O)cc(C(=O)O)c7)c(S(=O)(=O)O)cc6c5)o4)ccc3c2O)cc(C(=O)O)c1 [Compound 143]	0.23
CCOC(=O)c1ccc(N=Nc2c(S(=O)(=O)O)cc3ccc(NC(=O)Nc4ccc5cc(S(=O)(=O)O)c(N=Nc6ccc(C(=O)OCC)cc6)c(O)c5c4)cc3c2O)cc1 [Compound 84]	1.7
COC(=O)c1ccccc1NC(=O)Nc1ccc2cc(S(=O)(=O)O)cc(O)c2c1 [Compound 24]	90
COC(=O)c1cc(NC(=O)Nc2ccc3c(S(=O)(=O)O)cc(S(=O)(=O)O)cc3c2)cc(C(=O)OC)c1 [Compound 26]	88
Cc1cc(C(=O)O)ccc1N=Nc1c(S(=O)(=O)O)cc2cc(NC(=O)c3ccc(C(=O)Nc4ccc5c(O)c(N=Nc6ccc(C(=O)O)cc6C)c(S(=O)(=O)O)cc5c4)cc3)ccc2c1O [Compound 168]	0.5
O=C(O)/C=C/c1ccc(N=Nc2c(S(=O)(=O)O)cc3cc(NC(=O)c4cccc(C(=O)Nc5ccc6c(O)c(N=Nc7ccc(/C=C/C(=O)O)cc7)c(S(=O)(=O)O)cc6c5)n4)ccc3c2O)cc1 [Compound 123]	0.2
O=C(Nc1cnc2ccccc2c1)Nc1ccc2c(O)cc(S(=O)(=O)O)cc2c1 [Compound 14]	90
O=C(O)CCCc1ccc(N=Nc2c(S(=O)(=O)O)cc3cc(Nc4c(Nc5ccc6c(O)c(N=Nc7ccc(CCCC(=O)O)cc7)c(S(=O)(=O)O)cc6c5)c(=O)c4=O)ccc3c2O)cc1 [Compound 189]	1
O=C(O)CCc1ccc(N=Nc2c(S(=O)(=O)O)cc3cc(NC(=O)c4cccc(C(=O)Nc5ccc6c(O)c(N=Nc7ccc(CCC(=O)O)cc7)c(S(=O)(=O)O)cc6c5)n4)ccc3c2O)cc1 [Compound 120]	0.21
O=C(O)c1cccc(N=Nc2c(S(=O)(=O)O)cc3cc(Nc4c(Nc5ccc6c(O)c(N=Nc7cccc(C(=O)O)c7)c(S(=O)(=O)O)cc6c5)c(=O)c4=O)ccc3c2O)c1 [Compound 190]	0.5
O=C1c2ccccc2C(=O)N1c1ccc2c(O)cc(S(=O)(=O)O)cc2c1 [Compound 23]	100
O=C(Nc1ccc2ccc(S(=O)(=O)O)cc2c1)Nc1ccc2c(O)cc(S(=O)(=O)O)cc2c1 [Compound 7]	78
O=C(O)/C=C/c1ccc(N=Nc2c(S(=O)(=O)O)cc3cc(NC(=O)c4ccc(C(=O)Nc5ccc6c(O)c(N=Nc7ccc(/C=C/C(=O)O)cc7)c(S(=O)(=O)O)cc6c5)cc4)ccc3c2O)cc1 [Compound 161]	25
O=C(Nc1ccc2cc(S(=O)(=O)O)cc(S(=O)(=O)O)c2c1)Nc1ccc2cc(S(=O)(=O)O)cc(S(=O)(=O)O)c2c1 [Compound 78]	80

Same assay, conditions: 0.05 h, read-out: % RT activity remaining at 10 μM

Compound	remaining activity at 10 µM [%]
O=C(NC(=O)Oc1ccccc1)Nc1ccc2cc(S(=O)(=O)O)cc(O)c2c1 [Compound 30]	87

Same assay, conditions: read-out: IC50 (RT activity)

Compound	IC50 [nM]
O=C(Nc1ccc2c(O)c(N=Nc3ccc(-c4nnn[nH]4)cc3)c(S(=O)(=O)O)cc2c1)Nc1ccc2c(O)c(N=Nc3ccc(-c4nnn[nH]4)cc3)c(S(=O)(=O)O)cc2c1 [Compound 159]	220
